The subject of series [1] is APAP-induced liver injury. Kind of series: APAP-induced liver injury: alanine aminotransferase (ALT) level. It counts as in vivo, mouse. As to conditions: single dose 400 mg/kg, IP. The procedure: (§1) The in vivo studies were performed under animal protocols (PRO00007499) and (PRO00006638) approved by the Institutional Animal Care & Use Committee of the University of Michigan, in accordance with the recommendations in the Guide for the Care and Use of Laboratory Animals of the National Institutes of Health. C57BL/6 WT mice (~8 weeks, male, normal chow) were purchased from the Jackson Laboratory and randomly divided into eight groups (8–9 mice per group) treated (IP) as follows: phosphate-buffered saline vehicle once per day for 3 days (G1), APAP alone a single dose at 400 mg/kg on day 1 (G2), DI-1859 alone 25 mg/kg once per day for 3 days (G3), DI-1859 alone 50 mg/kg once per day for 3 days (G4), pretreatment (1 day before the APAP administration) with DI-1859 at 25 mg/kg once per day for 3 days followed with APAP at 400 mg/kg on day (G5), pretreatment (1 day before the APAP administration) with DI-1859 at 50 mg/kg once per day for 3 days followed with APAP at 400 mg/kg on day (G6), APAP a single dose at 400 mg/kg (3 h before the first DI-1859 administration) followed with DI-1859 at 25 mg/Kg once per day for 3 days (G7), and APAP a single dose at 400 mg/kg (3 h before the first DI-1859 administration) followed with DI-1859 at 50 mg/Kg once per day for 3 days (G8).
(§2) To induce acute liver injury, animals received PBS or APAP (400 mg/kg, sigma, A7085) through I.P. injection at 12 p.m. and were sacrificed 48 h afterward. To examine the protective effect of DI-1859 (groups 5 and 6), animals were I.P. injected with compound for 3 consecutive days (9 a.m. on each day, starting 1 day before APAP administration). To examine the restorative effect of DI-1859 (groups 7 and 8), animals were I.P. injected with compound 3 h after APAP administration followed by two additional treatments (9 a.m. on the next 2 days). Body weight and blood glucose level measurement, along with blood sample collection, were performed at 12 p.m. on each day.
Blood glucose levels were determined using glucometers (Bayer Corp., Pittsburgh, PA). Plasma ALT activity was measured using an ALT reagent set (Pointe Scientific Inc., Canton, MI).

Series [2] deals with APAP-induced liver injury. As to the kind of experiment: APAP-induced liver injury: ROS assay in liver tissue. It counts as in vivo, mouse. As to conditions: G2: APAP 400 mg/kg, a single dose. The procedure:
as §1, §2
Liver samples were homogenized in a lysis buffer and mixed with a dichlorofluorescein diacetate fluorescent probe (DCF, Sigma, D6883) to a final probe concentration of 5 µM for 1 h at 37 °C. DCF fluorescence was measured using a BioTek Synergy 2 Multi-Mode Microplate Reader (485 nm excitation and 527 nm emission).

Series [3] deals with U2OS cells. Kind of series: Cell viability assay (WST-8), U2OS. It counts as cell-based, human. As to conditions: for cell viability relative to control: replicates. As for the experimental part:
(§3) Cell viability assay was performed as previously described. The effect of DCN1 inhibitors on cell growth was evaluated by a WST-8 [2-(2-methoxy-4-nitrophenyl)-3-(4-nitrophenyl)-5-(2,4-disulfophenyl)-2H-tetrazolium, monosodium salt assay (Dojindo Molecular Technologies, Inc). Cells (2000–3000 cells in each well) were seeded in 96-well tissue culture plates in medium (100 μL) and treated with serial dilution of DCN1 inhibitors for 3 days. At the end of incubation, WST-8 dye (20 μL) was added to each well and incubated for 1–3 h, then the absorbance was measured in a microplate reader (Molecular Devices) at 450 nm. Cell growth inhibition was evaluated as the ratio of the absorbance of the sample to that of the control. The values were inserted into Prism software, and the curves and the EC50 values were produced by Prism software.

Series [4] can be described thus: Cell viability assay (WST-8), MDA-MB-231. It counts as cell-based, human. The conditions noted are these: human, MDA-MB-231 cells, replicates, read-out: cell viability relative to control. The procedure: as §3
Series [5] has as its system MDA-MB-231 cells. As to the kind of experiment: Cell viability assay (WST-8), MDA-MB-231. The conditions noted are these: for cell viability relative to control: replicates. It counts as cell-based, human. The procedure:
as §3
Background: Formazan colour is commonly taken as a measure of viable cells.

Series [6] is described as follows: Cell viability assay (WST-8), HCT116. The conditions noted are these: human, HCT116 cells, replicates, read-out: cell viability relative to control. It counts as cell-based, human. As for the experimental part: as §3
The subject of series [7] is HCT116 cells. As to the kind of experiment: Cell viability assay (WST-8), HCT116. As to conditions: for cell viability relative to control: replicates. It counts as cell-based, human. As for the experimental part:
as §3

For series [8], the system named is neddylation of cullin 3. Kind of series: Western blot, cullin 3 neddylation in cells of different tissue types (U2OS, THLE2, MDA-MB-231, KYSE70, HCT116). It counts as cell-based, human. The procedure: (§4) Western blotting was performed as described previously. Treated cells were lysed by RIPA buffer supplemented with protease inhibitor. The expression level of indicated proteins was examined by immunoblotting analysis and GAPDH was used as the loading control. Antibodies were purchased commercially: cullin 1 (sc-17775, 1:500 dilution) and cullin 2 (sc-166506, 1:500 dilution) from Santa Cruz Biotech (Santa Cruz, CA); cullin 4A (PA5-14542, 1:1000 dilution), cullin 4B (PA5-50647, 1:1000 dilution), and DCN3 (DCUN1D3, PA5-44000, 1:1000 dilution) from Thermo Fisher Scientific (Wayne, MI); cullin 3 (2759, 1:1000), NRF2 (12721, 1:1000 dilution), HO-1 (70081, 1:1000 dilution), and Bim (2819, 1:1000 dilution) from Cell Signaling Technology (Boston, MA); DCN1 (GWB-E3D700, 1:1000 dilution) from GenWay Biotech (San Diego, CA); and cullin 5 (A302-173A, 1:500 dilution) from Bethyl Labs (Montgomery, TX). Results are representative of two independent experiments.

Series [9] has as its system NRF2 protein. As to the kind of experiment: Western blot, NRF2 protein accumulation in cells. The conditions noted are these: 100 nM. It counts as cell-based, human. As for the experimental part: as §4
Series [10] deals with DCN1 (Homo sapiens, UniProt Q96GG9). Kind of series: Intact-protein mass spectrometric analysis of covalent complex formation, Method A. It counts as binding. The conditions noted are these: for Percentage of the formation of covalent complex with DCN1 protein: 37 °C. From the text: MassHunter Qualitative Analysis software (Agilent) was used to analyze the data. Intact protein masses were obtained using the maximum entropy deconvolution algorithm. The mass spectrometry data in Supplementary Figs. 1–11 were generated by Method A.
Chain of DCN1 (Q96GG9 58-259 limits assumed): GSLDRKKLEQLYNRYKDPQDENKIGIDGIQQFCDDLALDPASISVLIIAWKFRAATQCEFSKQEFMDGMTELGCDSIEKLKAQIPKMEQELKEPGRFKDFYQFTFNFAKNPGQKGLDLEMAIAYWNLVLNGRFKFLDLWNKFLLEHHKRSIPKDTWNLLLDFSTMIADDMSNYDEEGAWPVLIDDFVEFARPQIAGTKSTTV

Series [11] concerns neddylation of cullin 3. As to the kind of experiment: Western blot, cullin 3 neddylation in U2OS cells. It counts as cell-based, human. The conditions noted are these: 24 h, Fig. 1c. As for the experimental part:
as §4
Background: Immunoblotting shows a protein as a band on a membrane.

Where [12] appears, read: 10 min incubation, 1.2-fold excess inhibitor.

Where “and” joins values, the source holds several entries; their conditions need not be identical. Equal entries are not always repeated. Bounds are passed on as bounds.

Broadly, the EC50 is the concentration needed to bring the measured effect to its halfway point. As usually defined, the viability is a read-out of living cells in per cent, often relative to untreated cells.

Consider `CC(=O)Nc1ccc(O)cc1` [APAP, acetaminophen], for which, in [1], the “hepatotoxicity in mice” value is listed as “induced severe hepatotoxicity”. In series [2], the “ROS level in mouse liver tissue, mean” value was 12.4435 A.U./ug and the “ROS level normalised to the mean of G1 (vehicle), mean” value is recorded as 1.645.

`CCC(=O)N[C@@H](Cc1nc2ccc(C(C)C)cc2s1)C(=O)N[C@H](CNC(=O)CCN1CCOCC1)C1CCCCC1` [DI-591]: the EC50 in [3] (Homo sapiens, U2OS, 72 h, read-out: EC50, cell growth inhibition) is over 1 µM; in [5] (Homo sapiens, MDA-MB-231, 72 h, read-out: EC50, cell growth inhibition) it was over 1 µM; in [7] (Homo sapiens, HCT-116, 72 h, read-out: EC50, cell growth inhibition) it was over 1 µM. For the same compound, the “cell viability relative to control” value in series [3] (conc 10, 72 h) was 113.521 and 92.8169 and 93.8028; in [3] (conc 30, 72 h) it was 110.282 and 96.9014 and 89.8591; in series [3] (conc 100, 72 h) it was 112.958 and 95.2113 and 89.4366; in series [3] (conc 300, 72 h), 115.211 and 91.5493 and 99.0141; in series [3] (conc 1000, 72 h) it was 84.9296 and 111.127 and 85.7746; in series [5] (conc 10, 72 h), 101.954 and 101.609. For the same compound, the “cell viability relative to control” value in series [5] (conc 30, 72 h) is 108.276 and 97.3563; in series [5] (conc 100, 72 h), 100.345 and 97.5862; in series [5] (conc 300, 72 h), 105.517 and 106.667; in series [5] (conc 1000, 72 h), 102.644; in [7] (conc 3, 72 h), 106.068 and 106.647; in [7] (conc 10, 72 h), 94.7863 and 106.766. The “cell viability relative to control” value is 103.675 and 96.2874 in series [7] (conc 30, 72 h); 92.6577 and 103.333 and 79.1617 in series [7] (conc 100, 72 h); 90.9009 and 107.521 and 85.6886 in series [7] (conc 300, 72 h); 100.085 and 92.0359 in series [7] (conc 1000, 72 h). For the same compound, the viability at 72 h in [4] (conc 10, 72 h) amounted to 94.3%; in series [4] (conc 30, 72 h) it was 113%; in series [4] (conc 100, 72 h) it was 109%; in series [4] (conc 300, 72 h), 105%; in series [4] (conc 1000, 72 h) it was 94.9%; in [6] (conc 3, 72 h) it was 106%. The viability at 72 h in [6] (conc 10, 72 h) was 94.3%; in series [6] (conc 30, 72 h), 90%; in [6] (conc 1000, 72 h), 94.3%.

For the compound `C=C(CN(C)C)C(=O)NC[C@H](NC(=O)[C@@H](Cc1nc2ccc(C(C)C)cc2s1)NC(=O)CC)C1CCCCC1` [DI-1859DD], in series [8], the “times less potent than DI-1548 and DI-1859, respectively, on cullin 3 neddylation” value is given as over 300 times. Also, the “effect on the neddylation of cullin 3” value in series [8] (100–300 nM) is “no significant effect”. Moreover, the “accumulation of NRF2 protein” value in [9] is “no obvious accumulation”.

In the case of `CCC(=O)N[C@@H](Cc1nc2ccc(C(C)C)cc2s1)C(=O)N[C@H](CNC(=O)/C=C/CN(C)C)C1CCCCC1` [compound 5], the “covalent complex formation / reaction kinetics with DCN1 protein (in words)” value in series [10] is listed as “reaction kinetics similar to that of 3”. Besides, the “Percentage of the formation of covalent complex with DCN1 protein” value (“Percentage” below) amounted to 0% in series [10] (setting [12]), 0% in [10] (60 min (1 h) incubation), 2% in [10] (180 min (3 h) incubation) and 30% in [10] (720 min (12 h) incubation).

In the case of `C=C(CCN1CCOCC1)C(=O)NC[C@@H](NC(=O)[C@H](Cc1nc2ccc(C(C)C)cc2s1)NC(=O)CC)C1CCCCC1` [compound 8], in series [10], the “covalent complex formation / reaction kinetics with DCN1 protein (in words)” value was “much slower reaction kinetics than 6 and 7”. Besides, the “Percentage” value in [10] (60 min (1 h) incubation) came out at 15%; in series [10] (720 min (12 h) incubation), 100%. Besides, the “potency in inhibition of cullin 3 neddylation compared with DI-591” value in series [11] is recorded as “much more potent than DI-591”.

In the case of `C=C(CCN(C)C)C(=O)NC[C@@H](NC(=O)[C@H](Cc1nc2ccc(C(C)C)cc2s1)NC(=O)CC)C1CCCCC1` [compound 9], in series [10], the “covalent complex formation / reaction kinetics with DCN1 protein (in words)” value is “much slower reaction kinetics than 6 and 7”. For the same compound, the “Percentage” value in [10] (60 min (1 h) incubation) was 30%; in [10] (180 min (3 h) incubation), 50%; in series [10] (720 min (12 h) incubation), 100%. Besides, in series [11], the “potency in inhibition of cullin 3 neddylation compared with DI-591” value is “much more potent than DI-591”.

With `C=C(Cn1ccnc1)C(=O)NC[C@@H](NC(=O)[C@H](Cc1nc2ccc(C(C)C)cc2s1)NC(=O)CC)C1CCCCC1` [compound 10], the “covalent complex formation / reaction kinetics with DCN1 protein (in words)” value in [10] is “slower reaction kinetics with DCN1 than DI-1548 and DI-1859”. The “Percentage” value in series [10] (setting [12]) is 80%; in series [10] (60 min (1 h) incubation) it was 100%; in series [10] (180 min (3 h) incubation), 100%; in series [10] (720 min (12 h) incubation), 100%. In addition, the “potency in inhibition of cullin 3 neddylation compared with DI-1548” value in [8] (in cell, Supplementary Fig. 12) is “ten times less potent than DI-1548”.

For the origin of these results see publication PMC8113459, “Selective inhibition of cullin 3 neddylation through covalent targeting DCN1 protects mice from acetaminophen-induced liver toxicity” (Nature Communications, 2021).
